According to patent US5288621A, “Pituitary TRH receptor” (Cornell Research Foundation, Inc., priority 1990, dated 1994):
Like-named read-outs stand apart in the source and are kept apart here.

Assays:
[1] = biological target: T1, TRH receptor (TRH-R) expressed in Xenopus oocytes (Mus musculus, UniProt P21761); assay: Competition for [3H]methylTRH binding to intact Xenopus oocytes injected with RNA transcribed in vitro from pBSmTRHR
T1 construct: injected with RNA transcribed in vitro from the plasmid containing the TRH-R cDNA (pBSmTRHR); expressed in transfected cells; host or cells: Xenopus laevis oocytes injected with in vitro transcribed RNA from pBSmTRHR
T1 sequence (P21761 1-393): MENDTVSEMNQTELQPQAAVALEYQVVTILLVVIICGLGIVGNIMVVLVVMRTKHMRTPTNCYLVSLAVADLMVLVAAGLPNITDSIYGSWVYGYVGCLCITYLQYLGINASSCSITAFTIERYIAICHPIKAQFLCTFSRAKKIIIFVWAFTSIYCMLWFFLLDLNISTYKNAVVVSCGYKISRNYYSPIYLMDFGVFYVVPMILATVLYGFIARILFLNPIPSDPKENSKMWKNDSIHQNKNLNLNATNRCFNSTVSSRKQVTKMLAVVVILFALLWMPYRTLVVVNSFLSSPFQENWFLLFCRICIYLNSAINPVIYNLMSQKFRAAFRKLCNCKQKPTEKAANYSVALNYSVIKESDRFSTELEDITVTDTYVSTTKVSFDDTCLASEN
Procedure: FIG. 2 depicts TRH (the filled squares) and chlordiazepoxide (the unfilled circles) competion for the binding of [^3 H]methylTRH to oocytes expressing TRH receptors 3 days after injection of 5 ng of in vitro transcribed RNA. The results are presented in this figure as mean ± S.E. of duplicate determinations.
Xenopus oocytes were injected with 5 ng of sense RNA transcripts ans assayed for specific binding of TRH and electrophysiological responses to TRH. Binding to intact oocytes was performed as described in the literature [see Molecular Endocrinology 3:9070 (1989)], using 2 nM [^3 H]methylTRH as the labeled ligand, and unlabeled TRH and chlordiazepoxide as competitive inhibitors.
Five to 10 oocytes were incubated at 4° C. in 0.2 ml OR-2 containing 40 nm [^3 H]methylTRH without or with 1 μl unlabeled TRH for up to 3 hours. Oocytes were washed 7 times with 4 ml ice-cold OR-2 solution and radioactivity measured by liquid scintillation counting. Specific binding was calculated by subtracting radioactivity bound in the presence from that in the absence of unlabeled TRH. Nonspecific binding was between 30 and 45% of total binding.

[2] = biological target: T2, TRH-R expressed in COS-1 cells (Mus musculus, UniProt P21761); assay: Competition for [3H]methylTRH binding in COS-1 cells transfected with pCDM8mTRHR; details: 48 hours, read-out: K3 (Ki) for displacement of [3H]methylTRH binding
T2 construct: the entire TRH-R cDNA, according to the present invention, contained in a Not I/HindIII fragment was cloned directly into the eukaryotic expression vector pCDM8; expressed in transfected cells; host or cells: COS-1 cells transfected with pCDM8mTRHR
T2 sequence (P21761 1-393): T1 sequence (P21761 1-393)
Procedure: In FIGS. 6 and 7, COS-1 cells were transfected with the TRH-R cDNA according to the present invention, in the mammalian expression vector pCDM8 (pCDM8m TRHR) and assayed for binding and responses 48 hours later. Specifically, FIG. 6, depicts the TRH (filled squares) and chlordiazepoxide (unfilled circles) competition for the binding of [^3 H]methylTRH. COS-1 cells transfected with pCDM8mTRHR were assayed for the binding of [^3 H]methylTRH in the presence of increasing amounts of either unlabeled TRH or chlordiazepoxide. Results are presented as mean ± range of data from duplicate determinations in one of two similar experiments. In FIG. 7, COS-1 cells transfected with pCDM8mTRHR were labeled with myo-[^3 H]inositol for 48 hours, washed, and tested for dose-dependent stimulation of inositol phosphate production by TRH. The results are presented as mean ± S.D. of triplicate determinations from one of two similar experiments. […]
No specific binding or TRH stimulated inositol phosphate formation was detectable in untransfected COS-1 cells or cells transfected with pCDM8 alone. As depicted in FIG. 6, [^3 H]methylTRH binding and displacement by TRH and chlordiazepoxide were measured. […]

pituitary TRH-R = details: Neuroendocrinology 32:310 (1981); cited from earlier work
[3] = biological target: T3, TRH-R expressed in Xenopus oocytes (Mus musculus, UniProt P21761); assay: Electrophysiological response to TRH in voltage-clamped Xenopus oocytes injected with RNA transcribed from the TRH-R cDNA; type: cell-based; details: 3 days after injection of 5 ng RNA
T3 construct: injected with RNA transcribed in vitro from the plasmid containing the TRH-R cDNA (pBSmTRHR); expressed in transfected cells; host or cells: Xenopus laevis oocytes injected with in vitro transcribed RNA from pBSmTRHR
T3 sequence (P21761 1-393): T1 sequence (P21761 1-393)
Procedure: FIG. 3 more specifically depicts the concentration-response relationship of Xenopus oocytes 3 days following injection of 5 ng of in vitro transcribed RNA. In FIG. 3, the results are presented from two experiments with N≥6.
A single oocyte, in a 0.4 ml perfusion chamber, was impaled with two standard glass electrodes filed with 3M KCl and maintained under voltage clamp using a Dagan 8500 intracellular clamp. Drugs were included in the perfusate and applied at a flow rate of 8 ml/min. The apparent latency is the time between achieving greater than 80% of the perfusate concentration in the perfusion chamber (5.5 sec after switching to TRH) and the initial deflection of the pen on the chart recorder due to membrane depolarization.
RNA was injected (25-50 nl) at the equator of oocytes, and responses were tested 24 to 72 hours after injection.
This dose dependency is the same as that observed in GH3 cells when rapid effects of TRH, such as generation of inositol 1,4,5-triphosphate or elevation of cytoplasmic calcium, were measured [see J Biol Chem 261:2712 (1986) and J Biol Chem 259:5827 (1984)].

[4] = biological target: T2, TRH-R expressed in COS-1 cells; assay: TRH-stimulated inositol phosphate formation in COS-1 cells transfected with pCDM8mTRHR; type: cell-based; details: labeled with myo-[3H]inositol 48 hours
Procedure: In FIGS. 6 and 7, COS-1 cells were transfected with the TRH-R cDNA according to the present invention, in the mammalian expression vector pCDM8 (pCDM8m TRHR) and assayed for binding and responses 48 hours later. […] In FIG. 7, COS-1 cells transfected with pCDM8mTRHR were labeled with myo-[^3 H]inositol for 48 hours, washed, and tested for dose-dependent stimulation of inositol phosphate production by TRH. The results are presented as mean ± S.D. of triplicate determinations from one of two similar experiments.
COS-1 cells were transfected using the DEAE dextran method, and after 48 to 72 hours the cells were assayed for [^3 H]methylTRH binding and TRH stimulated inositol phosphate formation.
On the day prior to transfection, 35 mm, 6 well tissue culture plates were seeded with 6×10^5 in DMEM with 10% FCS; cells should be just subconfluent for transfection. A transfection cocktail was prepared: supercoiled plasmid DNA (ethanol precipitated if necessary) was resuspended in 0.3 ml PBS, and then vortexed. 0.1 ml DEAE-dextran was added to bring the final concentration to 0.5 mg/ml, and the solution mixed thoroughly. The tissue culture medium was aspirated from the cell cultures and the COS cells were rinsed twice with 2 ml of PBS warmed to 37° C. […]

Compound	Ki ([1]; Xenopus oocytes, 3 days after injection of 5 ng in vitro transcribed RNA, calculated, approximate, read-out: apparent inhibition constant (Ki) for inhibition of [3H]methylTRH binding)	Ki [2]	affinity relative to TRH for the pituitary TRH-R (higher) (pituitary TRH-R)	Ki [1]	lowest TRH concentration that evoked an electrophysiological response [3]	EC50 ([3]; read-out: TRH concentration giving half-maximal electrophysiological response)	EC100 ([3]; read-out: TRH concentration giving maximum electrophysiological response)	EC50 [4]
CNC1=Nc2ccc(Cl)cc2C(c2ccccc2)=[N+]([O-])C1 [chlordiazepoxide]	~3000 nM	20000 nM						
[^3 H]methylTRH			10 fold					
NC(=O)[C@@H]1CCCN1C(=O)[C@H](Cc1cnc[nH]1)NC(=O)[C@@H]1CCC(=O)N1 [TRH, thyrotropin releasing hormone]		10 nM		~30 nM	1 nM	10 nM	0.1 µM	~10 nM
